Counter-ions that a name gives are not always drawn. Like-named read-outs stand apart in the source and are kept apart here. Blank lines part the entries; values can stand above or below the compound they belong to. Residues, ends and D or L forms follow the SMILES beside them.
Key:
[1] = Dissolution in water (time to complete dissolution); assay type: physicochemical
Protocol: N-[N-(3,3-dimethylbutyl)-L-α-aspartyl]-L-phenylalanine 1-methyl ester (25.0 g) was slurried in 150 ml of water. To the stirred slurry was slowly added concentrated hydrochloric acid (5.5 ml, 0.0661 mol). After approximately 10 minutes all the solid had dissolved. The clear solution was then freeze dried. […] Yield: 27.34 g white solid (99.7%). The hydrochloride salt (1 g) dissolved in water (100 ml) in 70 seconds. 1H NMR (CD3 CN) δ 0.89 (s, 9H), 1.64 (m, 2H), 3.01 (m, 6H), 3.68 (s, 3H), 4.16 (t, 1H), 4.67 (m, 1H), 7.26 (m, 5H), 8.27 (d, 1H). Anal. Calcd for C20 H31 ClN2 O5.H2 O: C, 55.48; H, 7.69; N, 6.47; Cl, 8.19. Found: C, 55.95; H, 7.59; N, 6.55; Cl, 8.35.
N-[N-(3,3-dimethylbutyl)-L-α-aspartyl]-L-phenylalanine 1-methyl ester (10.0 g) was slurried in 100 ml of water. An equimolar amount of 85% phosphoric acid solution was added. After all the solid dissolved, the solution was freeze dried. […] Yield 12.33 g white solid (98.0%). The phosphate salt (0.1 g) dissolved in water (100 ml) in less than 30 seconds (visual observation) and about 90 seconds by spectrophotometric analysis. 1H NMR (CD3 CN) δ 0.89 (s, 9H), 1.55 (m, 2H), 2.84 (m, 5H), 3.19 (m, 1H), 3.67 (s, 3H), 4.06 (t, 1H), 4.70 (m, 1H), 7.27 (m, 5H), 8.03 (d, 1H). Anal. Calcd for C20 H33 N2 O9 P.H2 O: C, 48.58; H, 7.15; N, 5.67; P, 6.26. Found: C, 48.15: H, 7.08; N, 5.60; P, 6.57.
N-[N-(3,3-dimethylbutyl)-L-α-aspartyl]-L-phenylalanine 1-methyl ester (25.0 g) was slurried in 100 ml of water and concentrated sulfuric acid (3.67 ml) was added slowly. After several minutes of stirring some material remained undissolved. Therefore, 75 ml of acetone was added. The resulting clear solution was stirred for 30 minutes, then the acetone was removed under reduced pressure on a rotary evaporator. The contents of the flask remained a clear solution. […] Yield: 30.04 g (95%). The sulfate salt (0.1 g) dissolved in water (100 ml) in less than 20 seconds (visual observation). 1H NMR (CD3 CN) δ 0.89 (s,9H), 1.57 (m, 2H), 2.91 (m, 5H), 3.20 (m, 1H), 3.68 (s, 3H), 4.15 (t, 1H), 4.72 (m, 1H), 7.27 (m, 5H), 7.68 (d, 1H). Anal. Calcd for C20 H32 N2 O9 S.H2 O: C, 48.56; H, 6.94; N, 5.66; S, 6.48. Found C, 48.93; H, 7.02; N, 5.78; S, 6.50.
N-[N-(3,3-dimethylbutyl)-L-α-aspartyl]-L-phenylalanine 1-methyl ester (5.00 g) was dissolved in 75 ml of acetone. Citric acid (2.53 g) was dissolved in 50 ml of water, and the acetone solution was added. This formed a clear, colorless solution that was stirred for 1 hour. The acetone was evaporated under reduced pressure. The resulting slurry was freeze dried to obtain 7.5 g of a white solid. The citrate salt (0.1 g) dissolved in water (100 ml) in 90 seconds (visual observation). δ (CD3 CN) 0.89 (s, 9H), 1.53 (m, 2H), 2.83 (m, 10H), 3.20 (m, 1H), 3.67 (s, 3H), 4.04 (t, 1H), 4.21 (m, 1H), 7.27 (m, 5H), 7.79 (d, 1H). Anal. Calcd for C26 H38 N2 O12.H2 O: C, 53.05; H, 6.86; N, 4.76. Found: C, 53.10; H, 6.88; N, 4.41.
N-[N-(3,3-dimethylbutyl) -L-α-aspartyl]-L-phenylalanine 1-methyl ester (0.05-0.1 g) was dissolved in water (100 mL). The compound completely dissolved in 5-7 minutes (visual observation). The dissolution of 1.0 g of N-[N-(3,3-dimethylbutyl)-L-α-aspartyl]-L-phenylalanine 1-methyl ester in 100 mL of water required approximately 45 minutes.

[2] = compared with aspartame, under some pH conditions; cited from earlier work
[3] = amino group (primary in aspartame, secondary in neotame); cited from earlier work
[4] = cited from earlier work
[5] = compared with aspartame; cited from earlier work
[6] = on a weight basis, cited from earlier work
[7] = Aqueous solubility compared to the starting material / water solubility; assay type: physicochemical; conditions: starting material = neotame
[8] = 0.1 g in water (100 ml), visual observation

dissolution time in water ([1]; 1 g in water (100 ml)): 70 s
Compound: COC(=O)[C@H](Cc1ccccc1)NC(=O)[C@H](CC(=O)O)NCCC(C)(C)C [hydrochloride salt, Hydrochloride Salt of N-[N-(3,3-dimethylbutyl)-L-α-aspartyl]-L-phenylalanine 1-methyl Ester]
aqueous solubility compared to the starting material [7]: greatly increased aqueous solubility compared to the starting material

dissolution time in water by spectrophotometric analysis ([1]; 0.1 g in water (100 ml), spectrophotometric analysis): about 90 seconds
dissolution time in water (visual observation) [1, 8]: less than 30 seconds
Compound: COC(=O)[C@H](Cc1ccccc1)NC(=O)[C@H](CC(=O)O)NCCC(C)(C)C [phosphate salt, Phosphate Salt of N-[N-(3,3-dimethylbutyl)-L-α-aspartyl]-L-phenylalanine 1-methyl Ester]
aqueous solubility compared to the starting material [7]: greatly increased aqueous solubility compared to the starting material

dissolution time in water (visual observation) [1, 8]: less than 20 seconds
Compound: COC(=O)[C@H](Cc1ccccc1)NC(=O)[C@H](CC(=O)O)NCCC(C)(C)C [sulfate salt, Sulfate Salt of N-[N-(3,3-dimethylbutyl)-L-α-aspartyl]-L-phenylalanine 1-methyl Ester]
aqueous solubility compared to the starting material [7]: greater aqueous solubility compared to the starting material

Continued, compound first:

Compound: COC(=O)[C@H](Cc1ccccc1)NC(=O)[C@H](CC(=O)O)NCCC(C)(C)C [N-[N-(3,3-dimethylbutyl)-L-α-aspartyl]-L-phenylalanine 1-methyl ester]
dissolution time in water, completely dissolved (visual observation) ([1]; 0.05-0.1 g in water (100 mL), visual observation): 5 to 7 min
dissolution time in water ([1]; 1.0 g in 100 mL of water): approximately 45 minutes
stability [2]: higher stability than aspartame under some pH conditions
pKa [3]: 8.1
solubility in water ([4]; compared with aspartame): much lower solubility in water
solubility in water ([4]; in words, no comparator): sparingly soluble in water
solubility in organic solvents [5]: much higher solubility in organic solvents than aspartame
sweetening potency relative to aspartame ([6]; times that of aspartame): at least 50 times
sweetening potency relative to sucrose ([6]; times that of sucrose): about 10,000 times

Compound: COC(=O)[C@H](Cc1ccccc1)NC(=O)[C@@H](N)CC(=O)O [aspartame] (H-Asp-Phe-OMe)
pKa [3]: 7.7

Compound: COC(=O)[C@H](Cc1ccccc1)NC(=O)[C@H](CC(=O)O)NCCC(C)(C)C [citrate salt, Citrate Salt of N-[N-(3,3-dimethylbutyl)-L-α-aspartyl]-L-phenylalanine 1-methyl Ester]
dissolution time in water (visual observation) [1, 8]: 90 s

From patent publication US6180156A, “Acid salts of N-[N-(3,3-dimethylbutyl)-L-α-aspartyl]-L-phenylalanine 1-methyl ester” (The NutraSweet Company, priority 1998, dated 2001)
